Test results reported in patent US6409508B1, “Use of ozone for the treatment of dental caries” (Natural White, priority 1998, dated 2002).

Assays:
Type in all cases: cell-based
[1] = tested on: micro-organisms in primary root carious lesions (PRCL); experiment: Ozone effect on microflora from primary root caries ex-vivo; conditions: for Mean ± SE of total cfu (Log10): after 10 seconds of ozone treatment
Text: Primary root carious lesions (PRCL) are a major clinical problem. The aim of this study was to establish if ozone could achieve effective microbial killing in PRCL. An ozone producing generator (Purezone Ltd., Ipswich, U.K.) was used in this ex-vivo study assessing the use of ozone on PRCL. In this study, soft PRCL requiring restoration were used as these are the most severe type of lesion found in humans. 20 freshly extracted teeth with PRCL requiring restoration were used. After plaque removal using a hand held standard fine nylon fibre sterile toothbrush with sterile water as a lubricant to cleanse the surface, each tooth was then isolated using sterile cotton wool rolls and dried using a dry sterile cotton wool roll. […] Each sample was weighed and immediately placed in 1 ml of Fastidious Anaerobe Broth (FAB). To each 1 ml of FAB containing a biopsy of carious or ozone treated carious dentine, sterile glass beads were added. They were vortexed for 30 seconds to facilitate the extraction of any micro-organisms from the carious dentine and disperse any aggregates. After decimal dilution with FAB, […] of these was spread on Fastidious Anaerobe Agar (LabM. Bury, Lancs., U.K.) supplemented with 5% (V/V) horse blood in an anaerobic chamber at 37° C. for four days. The mean±SE number of each colony type was counted and calculated.
The procedure of Example 2 was repeated except that ozonised water was applied to the lesion for 20 seconds.
The aims of these studies were to evaluate the efficiency of ozone on primary root caries and associated micro-organisms (Streptococcus sobrinus; TH 21, Streptococcus mutans; NCTC 10449). In study 1, 40 soft primary root carious lesions (PRCLs) from freshly extracted teeth were used and randomly divided into two groups to test the exposure to ozone for either 10 or 20 seconds. There was a significant (p<0.001) difference (Mean±SE) between the control samples for. either 10 seconds (log10 5.91±0.15) or 20 seconds (log10 6.18±0.21) and ozone treated samples for either 10 seconds (log10 3.57±0.37) or 20 seconds (log10 3.77±0.42). In study 2, 40 sterile saliva coated glass beads were put into bijoux bottles with 3 mls of Todd Hewitt broth for control and test groups. S. sobrinus and S. mutans were inoculated and incubated anaerobically overnight. Each glass bead was washed with 2 mls of PBS. Immediately, 10 seconds of ozone was applied to the glass beads in the test groups. Subsequently, each glass bead in the test and control groups was placed in 3 mls of Todd Hewitt Broth with six more sterile glass beads and were vortexed for 30 seconds. […] The number of each colony type was counted and calculated. […]

[2] = tested on: Streptococcus sobrinus; TH 21; experiment: Ozone on S. sobrinus on saliva coated glass beads; conditions: 10 seconds of ozone applied to glass beads
Text: (§1) The aims of these studies were to evaluate the efficiency of ozone on primary root caries and associated micro-organisms (Streptococcus sobrinus; TH 21, Streptococcus mutans; NCTC 10449). In study 1, 40 soft primary root carious lesions (PRCLs) from freshly extracted teeth were used and randomly divided into two groups to test the exposure to ozone for either 10 or 20 seconds. There was a significant (p<0.001) difference (Mean±SE) between the control samples for. either 10 seconds (log10 5.91±0.15) or 20 seconds (log10 6.18±0.21) and ozone treated samples for either 10 seconds (log10 3.57±0.37) or 20 seconds (log10 3.77±0.42). In study 2, 40 sterile saliva coated glass beads were put into bijoux bottles with 3 mls of Todd Hewitt broth for control and test groups. S. sobrinus and S. mutans were inoculated and incubated anaerobically overnight. Each glass bead was washed with 2 mls of PBS. Immediately, 10 seconds of ozone was applied to the glass beads in the test groups. Subsequently, each glass bead in the test and control groups was placed in 3 mls of Todd Hewitt Broth with six more sterile glass beads and were vortexed for 30 seconds. After decimal dilutions, […] were spread on blood agar plates supplemented with 5% (V/V) horse blood and placed in an anaerobic chamber at 37° C. for two days. The number of each colony type was counted and calculated. […]

[3] = tested on: Streptococcus mutans; NCTC 10449; experiment: Ozone on S. mutans on saliva coated glass beads; conditions: 10 seconds of ozone applied to glass beads
Text: as §1

O=[O+][O-] [Ozone, ozone]
percentage of micro-organisms killed ([1]; 10 seconds of ozone treatment): more than 99% | Mean ± SE of total cfu (Log10) ([1]; soft PRCL, freshly extracted teeth): 3.57 ± 0.37 Log10 | Mean ± SE of total cfu (Log10) ([1]; soft PRCL, freshly extracted teeth, listed as ozone): 3.57±0.37 Log10 | Mean ± SE of total cfu (log10) ([1]; after 20 seconds of ozone (ozonised water) treatment, soft PRCL, freshly extracted teeth): 3.77±0.42 log10 | colony count (log10, Mean±SE) [2]: 1.09±0.36 log10 | colony count (log, Mean±SE) [3]: 1.01±0.27 log
